Reference: patent publication US20090087425A1, “Combination of nitroderivatized steroid and bronchodilator for treating respiratory disease” (Topigen Pharmaceuticals Inc., priority 2007, published 2009)
Values joined by “and” are separate entries in the source; they are usually repeats but may differ in a detail not shown here. Equal values may be shown once. “Also recorded” adds a separate entry of the source. Read-outs that look alike come from different tables or passages of the source.

Tests used:
[1] = test system: bronchoconstriction induced by histamine; assay: Histamine-induced bronchoconstriction in conscious guinea-pigs, whole body plethysmography (sGaw); format: in vivo, guinea-pig; settings: for Duration of significant reduction of AHR after treatment: TPI-1020 0.3 mg/ml, or TPI-1020 0.3 mg/ml + salbutamol 20 μg/ml
[2] = asthmatic patients, cited from earlier work
muscarinic receptors = settings: cited from earlier work
[3] = test system: bronchoconstriction induced by methacholine; assay: Methacholine-induced bronchoconstriction in conscious guinea-pigs, whole body plethysmography (sGaw); format: in vivo, guinea-pig
Protocol: Groups of six male Dunkin-Hartley guinea-pigs, weighing 350-450 g were used throughout. Animals received food and water ad libitum and lighting was maintained in the room (22+/−2° C.) on a 12 h cycle. This work complied with the guidelines for the care and use of laboratory animals according to the Animals (Scientific Procedures) Act 1986.
Whole body plethysmography of the conscious guinea-pig was used to monitor airway function, recorded as specific airways conductance (sGaw). The method was as described by Griffiths-Johnson et al. (J. Pharmacol. Meth. 1988; 11:233-240), although a computerized data acquisition system replaced the original oscilloscope and angle resolver (Danahay et al. Clin. Exp. Allergy 1997; 28:513-522). Animals were fitted with a face mask and placed in a restrainer which was then slid into the plethysmograph chamber. The computer ran AcqKnowledge software using a Biopack data acquisition system. This system was capable of acquiring and storing data referring to the air across a pneumotachograph (Mercury FIL) as the animal breathed. The resulting change in box volume (pressure) was simultaneously measured.
Changes in air flow and box pressure were measured using UP1 and UP2 pressure transducers, respectively. The resulting waveforms could then be rapidly analysed by comparing the gradients of the flow and the box pressure waves at a point where flow tended towards zero, i.e. end tidal flow. A function of these two parameters, allowing for air pressure and the weight of the animal, gave the resulting value for specific airway conductance (sGaw). A minimum of five breaths were analysed for each animal at each time point to arrive at a mean value, which is the reported value.
In the experimental examples described herein, the reported values for sGaw measurements were taken following histamine or […] without treatment. This pre-treatment sGaw value measured after histamine or methacholine challenge, by convention, determined 100% bronchoconstriction for the animal. Following treatment with the experimental agents, including agents which are part of the subject invention, sGaw values (level of bronchoconstriction) were reported as a percentage of the pre-treatment value. Thus, a 10% post-treatment sGaw value, as compared to the 100% pre-treatment sGaw, is a 90% reduction in bronchoconstriction, or 90% reduction of airway hyperresponse (AHR). A 20% post-treatment sGaw value corresponds to an 80% reduction in bronchoconstriction or AHR. Thus, the lower the post-treatment sGaw value, the better the reduction of bronchoconstriction and AHR. For purposes of the subject invention, the more desired response is a lower sGaw value (less histamine- or methacholine-induced bronchoconstriction, and less AHR).
All drugs or vehicle were delivered as a whole body exposure chamber. […]
Tiotropium is an antimuscarinic or anticholinergic bronchodilator, different from the beta-agonist bronchodilators, such as salbutamol, described above. Baseline readings were taken on Day 1 prior to treatment (Pre-treatment) to determine 100% bronchoconstriction or AHR induced by methacholine. Recordings of sGaw were made at 0, 5 and 10 minutes after the […] (Post-treatment). The sGaw values of Day 3 are expressed as a percentage of Day 1 sGaw values following methacholine challenge (Pre-treatment), which is by definition set at 100%. Each point represents the mean+/−S.E.M. (n=6). Statistical significance was determined for p<0.05 using Student's paired t-test.
On Day 3, animals were treated with vehicle, alone, or with 1.0, 3.0, or 10.0 ug/ml of tiotropium. […] A dose of 0.1 µg/ml of tiotropium provided less than 40% reduction of AHR.

[4] = test system: recruitment of inflammatory cells (neutrophils); settings: cited from earlier work
[5] = FIG. 1B, budesonide 0.44 mg/ml, equimolar to 0.63 mg/ml TPI-1020
[6] = FIG. 2B, budesonide 0.44 mg/ml, equimolar to 0.63 mg/ml TPI-1020
[7] = FIG. 3, salbutamol 30 μg/ml, 30 mins before histamine
[8] = FIG. 3, salbutamol 30 μg/ml, 60 mins before histamine
[9] = FIG. 3, salbutamol 30 μg/ml, 90 mins before histamine
[10] = FIG. 2D, TPI-1020 0.11 mMl (0.1 mg/ml in text)
[11] = FIG. 3, TPI-1020 0.3 mg/ml, 30 mins before histamine
[12] = FIG. 3, TPI-1020 0.3 mg/ml, 60 mins before histamine
[13] = FIG. 3, TPI-1020 0.3 mg/ml, 90 mins before histamine

CC(=O)N[C@H](C(=O)O)C(C)(C)SN=O (racemic) [SNAP, S-nitroso-N-acetylpenicillamine]
% Inhibition ([1]; FIG. 2C, SNAP 0.15 mg/ml): 20% and 19% | Post-treatment (% sGaw) ([1]; FIG. 2C, SNAP 0.15 mg/ml): −81.2 % sGaw | % Inhibition ([1]; FIG. 2C, SNAP 0.31 mg/ml): 47% | Post-treatment (% sGaw) ([1]; FIG. 2C, SNAP 0.31 mg/ml): −52.6 % sGaw | % Inhibition ([1]; FIG. 2D, SNAP 0.7 mM): 19% | Post-treatment (% sGaw) ([1]; FIG. 2D, SNAP 0.7 mM): −81.2 % sGaw

CCCC1O[C@@H]2C[C@H]3[C@@H]4CCC5=CC(=O)C=C[C@]5(C)[C@H]4[C@@H](O)C[C@]3(C)[C@]2(C(=O)CO)O1 (stereo partly drawn) [Budesonide, budesonide]
% Inhibition [1, 5]: 35% | Post-treatment (% sGaw) [1, 5]: −65.2 % sGaw | % Inhibition [1, 6]: 35% | Post-treatment (% sGaw) [1, 6]: −65.2 % sGaw | % Inhibition ([1]; FIG. 2B, budesonide 0.44 mg/ml, equimolar to 0.63 mg/ml TPI-1020, listed as budesonide): 40% | % Inhibition ([1]; FIG. 2D, budesonide 0.11 mM): 18% | Post-treatment (% sGaw) ([1]; FIG. 2D, budesonide 0.11 mM): −81.8 % sGaw

COc1ccc(CC(C)NCC(O)c2ccc(O)c(NC=O)c2)cc1 (stereo not drawn) [Formoterol, formoterol]
Duration of bronchodilation ([2]; dose 6 μg): 8 h | Duration of bronchodilation ([2]; dose 12 μg): 10 h | Duration of bronchodilation ([2]; dose 24 μg): 12 h

CC(C)(C)NCC(O)c1ccc(O)c(CO)c1 (stereo not drawn) [Salbutamol, salbutamol]
% Inhibition ([1]; FIG. 1C, salbutamol 3 μg/ml): 12% | Post-treatment (% sGaw) ([1]; FIG. 1C, salbutamol 3 μg/ml): −87.6 % sGaw | % Inhibition ([1]; FIG. 1C, salbutamol 3 μg/ml, listed as salbutamol): no significant inhibition effect | % Inhibition ([1]; FIG. 1C, salbutamol 10 μg/ml): 3% | Post-treatment (% sGaw) ([1]; FIG. 1C, salbutamol 10 μg/ml): −96.7 % sGaw | % Inhibition ([1]; FIG. 1C, salbutamol 10 μg/ml, listed as salbutamol): no significant inhibition effect | % Inhibition ([1]; FIG. 1C, salbutamol 20 μg/ml): 20% | Post-treatment (% sGaw) ([1]; FIG. 1C, salbutamol 20 μg/ml): −80.1 % sGaw | % Inhibition ([1]; FIG. 1C, salbutamol 30 μg/ml): 84% | Post-treatment (% sGaw) ([1]; FIG. 1C, salbutamol 30 μg/ml): −15.6 % sGaw | % Inhibition ([1]; FIG. 1C, salbutamol 30 μg/ml, listed as salbutamol): 85% | % Inhibition ([1]; FIG. 2D, salbutamol 20 μg/ml): 11% | Post-treatment (% sGaw) ([1]; FIG. 2D, salbutamol 20 μg/ml): −89.0 % sGaw | % Inhibition ([1]; FIG. 2D, salbutamol 20 μg/ml, listed as salbutamol): insignificant reduction of AHR; also recorded: do not significantly reduce AHR | % Inhibition [1, 7]: 84% | Post-treatment (% sGaw) [1, 7]: −15.6 % sGaw | % Inhibition [1, 8]: 47% | Post-treatment (% sGaw) [1, 8]: −52.7 % sGaw | % Inhibition [1, 9]: 9% | Post-treatment (% sGaw) [1, 9]: −91.4 % sGaw | Duration of significant reduction of AHR after treatment ([1]; FIG. 3, salbutamol 30 μg/ml): 60 min

C[N+]1(C)[C@@H]2C[C@@H](OC(=O)C(O)(c3cccs3)c3cccs3)C[C@H]1[C@@H]1O[C@@H]12 [Tiotropium, tiotropium]
Selectivity for specific muscarinic receptors (muscarinic receptors): does not display selectivity for specific muscarinic receptors | % Inhibition ([3]; FIG. 5A, tiotropium 1 μg/ml): 35% | Post-treatment (% sGaw) ([3]; FIG. 5A, tiotropium 1 μg/ml): −65.2 % sGaw | % Inhibition ([3]; FIG. 5A, tiotropium 3 μg/ml): 73% | Post-treatment (% sGaw) ([3]; FIG. 5A, tiotropium 3 μg/ml): −26.7 % sGaw | % Inhibition ([3]; FIG. 5A, tiotropium 3 μg/ml, listed as tiotropium): about 75% | % Inhibition ([3]; FIG. 5A, tiotropium 10 μg/ml): ~85% | Post-treatment (% sGaw) ([3]; FIG. 5A, tiotropium 10 μg/ml): −14.9 % sGaw | % Inhibition ([3]; FIG. 5C, tiotropium 1 μg/ml): 35% | Post-treatment (% sGaw) ([3]; FIG. 5C, tiotropium 1 μg/ml): −65.2 % sGaw

budesonide 21-(4′-nitrooxymethyl)benzoate [TPI-1020]
Post-treatment (% sGaw) ([3]; FIG. 5B, TPI-1020 0.1 mg/ml, 30 mins before methacholine): −94.0 % sGaw | Post-treatment (% sGaw) ([3]; FIG. 5B, TPI-1020 0.1 mg/ml, 90 mins before methacholine): −86.9 % sGaw | Post-treatment (% sGaw) ([3]; FIG. 5B, TPI-1020 0.3 mg/ml, 30 mins before methacholine): −18.4 % sGaw | Post-treatment (% sGaw) ([3]; FIG. 5B, TPI-1020 0.3 mg/ml, 90 mins before methacholine): −65.3 % sGaw | Post-treatment (% sGaw) ([3]; FIG. 5C, TPI-1020 0.1 mg/ml): −86.9 % sGaw | Release in the lung of key mediators of inflammation ([4]; pre-clinical studies): significantly reduce release in the lung of key mediators of inflammation | Recruitment of inflammatory cells (neutrophils) ([4]; rodent models of airway inflammation and pulmonary disease): significantly block the recruitment of inflammatory cells (neutrophils) | % Inhibition ([1]; FIG. 1A, TPI-1020 0.1 mg/ml inhaled 15 min before 3 mM histamine): 20% and 21% | % Inhibition ([1]; FIG. 1A, TPI-1020 0.3 mg/ml): 48% | % Inhibition ([1]; FIG. 1A, TPI-1020 0.63 mg/ml): 95% | Post-treatment (% sGaw) ([1]; FIG. 2A, TPI-1020 0.1 mg/ml): −83.2 % sGaw | % Inhibition ([1]; FIG. 2A, TPI-1020 0.3 mg/ml): 48% and 50% | Post-treatment (% sGaw) ([1]; FIG. 2A, TPI-1020 0.3 mg/ml): −49.5 % sGaw | % Inhibition ([1]; FIG. 2A, TPI-1020 0.63 mg/ml): 80% and 72% | Post-treatment (% sGaw) ([1]; FIG. 2A, TPI-1020 0.63 mg/ml): −27.9 % sGaw | % Inhibition [1, 10]: insignificant reduction of AHR | Post-treatment (% sGaw) [1, 10]: −83.2 % sGaw | % Inhibition [1, 11]: 50% | Post-treatment (% sGaw) [1, 11]: −49.5 % sGaw | % Inhibition [1, 12]: 7% | Post-treatment (% sGaw) [1, 12]: −92.7 % sGaw | % Inhibition [1, 13]: −20% | Post-treatment (% sGaw) [1, 13]: −120.1 % sGaw | Duration of significant reduction of AHR after treatment ([1]; FIG. 3, salbutamol 30 μg/ml): 30 min | % Inhibition ([1]; FIG. 4B, TPI-1020 0.1 mg/ml): 17% | Post-treatment (% sGaw) ([1]; FIG. 4B, TPI-1020 0.1 mg/ml): −83.2 % sGaw | % Inhibition ([1]; FIG. 4B, TPI-1020 0.3 mg/ml): −20% | Post-treatment (% sGaw) ([1]; FIG. 4B, TPI-1020 0.3 mg/ml): −120.3 % sGaw
